One assay concerns the target T1, FGFR1 (Homo sapiens, UniProt P11362).
T1 construct: cytoplasmic domain [398-822 (terminal) amino acids]; purchased Carna 08-133
The assay is described as follows: FGFR1 kinase activity inhibition assay (LanthaScreen TR-FRET). The format is biochemical. The procedure: (§1) PV3552) and 10 mM EDTA were added to quench the kinase reaction, and incubated at 22°C for 60 minutes. • ⑤ The reaction was measured using a PerkinElmer EnVision multimode plate reader through TR-FRET dual wavelength detection. • 1. The RFU values were copied from the Envision program. • 2. The ratio of RFU 520nm/RFU 495nm was calculated. • 3. The value of the ratio was converted to a percentage inhibition value. % Inhibition = (max-data)/(max-min) × 100 [formula] "Min" represents the ratio of the control without enzyme, "max" represents the ratio of the DMSO control, and "data" represents the ratio of the compounds in wells with different concentrations. […] "Top" refers to the maximum response, "Bottom" refers to the minimum response, and "HillSlope" refers to the slope of the curve.
On the technique in general: In TR-FRET formats the signal depends on donor and acceptor labels being close together.

Another assay addresses T2, FGFR3 (Homo sapiens, UniProt P22607).
T2 construct: FGFR3's cytoplasmic domain [436-806 (terminal) amino acids]; purchased Carna 08-135
The assay is described as follows: FGFR3 kinase activity inhibition assay (LanthaScreen TR-FRET). The assay is classed as biochemical. As to conditions: for Selectivity (X) FGFR1/FGFR3: ratio of IC50 FGFR1/FGFR3, selectivity towards FGFR3. As to the method: as §1, with “curve. According to the same method as that in the FGFR1 kinase activity inhibition assay, the inhibitory activities against FGFR2, FGFR3 and FGFR4 were tested using FGFR2's cytoplasmic domain [399-821 (terminal) amino acids] (Carna: 08-134), FGFR3's cytoplasmic domain [436-806 (terminal) amino acids] (Carna: 08-135) and FGFR4's cytoplasmic domain [460-802 (terminal) amino acids] (Carna: 08-136), respectively. […]” for “curve.”

[1] abbreviates: FGFR1 kinase, TR-FRET, read-out: IC50 (nM) FGFR1.
Setting [2] is: FGFR3 kinase, TR-FRET, read-out: IC50 (nM) FGFR3.

Like-named read-outs stand apart in the source and are kept apart here. Some results are limits rather than exact numbers.

One may read the IC50 as the midpoint of a concentration-inhibition curve.

T1 sequence (P11362 398-822): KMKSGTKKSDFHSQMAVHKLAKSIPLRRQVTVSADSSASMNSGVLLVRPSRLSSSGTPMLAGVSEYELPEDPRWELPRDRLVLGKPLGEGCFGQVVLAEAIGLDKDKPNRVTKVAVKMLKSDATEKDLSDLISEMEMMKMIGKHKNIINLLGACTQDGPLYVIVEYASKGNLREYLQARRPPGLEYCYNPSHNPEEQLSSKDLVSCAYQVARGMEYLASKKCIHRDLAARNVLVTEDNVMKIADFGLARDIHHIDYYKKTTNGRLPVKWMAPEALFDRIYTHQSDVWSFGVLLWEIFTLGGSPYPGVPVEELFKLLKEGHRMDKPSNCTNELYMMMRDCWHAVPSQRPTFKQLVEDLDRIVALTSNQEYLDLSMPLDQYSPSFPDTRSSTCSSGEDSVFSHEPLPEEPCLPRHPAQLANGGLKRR
T2 sequence (P22607 436-806): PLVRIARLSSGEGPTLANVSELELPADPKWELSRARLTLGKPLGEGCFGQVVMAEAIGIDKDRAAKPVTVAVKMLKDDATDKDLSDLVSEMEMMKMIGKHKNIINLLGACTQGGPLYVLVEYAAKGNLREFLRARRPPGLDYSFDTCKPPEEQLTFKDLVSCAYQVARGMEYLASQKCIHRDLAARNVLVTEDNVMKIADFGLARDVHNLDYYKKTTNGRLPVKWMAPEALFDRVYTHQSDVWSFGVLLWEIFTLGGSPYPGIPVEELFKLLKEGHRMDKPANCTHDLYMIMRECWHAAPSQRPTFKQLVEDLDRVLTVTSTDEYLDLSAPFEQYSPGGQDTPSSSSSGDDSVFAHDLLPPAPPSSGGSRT

“7-methyl-5-(1-((3-(1-methyl-1H-pyrazol-4-yl)-1H-pyrazino[4,3-b]pyridin-5-yl)oxy)ethyl)pyridi no[3,4-b]pyrazine [Example 204]”: the IC50 on FGFR1 (setting [1]) was 1 to 10 nM; at FGFR3 (setting [2]), below 1 nM. Moreover, the “Selectivity (X) FGFR1/FGFR3” value on FGFR3 is reported as “A (A represents 1 ≤ multiple X<20)”.

With `C[C@@H](Oc1cc(C#N)c2[nH]nc(-c3cnn(C)c3)c2c1)c1c(Cl)cncc1Cl` [Example 8], the concentration for half-maximal inhibition (IC50) on FGFR1 (setting [1]) and on FGFR3 (setting [2]) was above 100 nM each time. Further, at FGFR3, the “Selectivity (X) FGFR1/FGFR3” value is listed as “A (A represents 1 ≤ multiple X<20)”. On FGFR1, `CCCn1cc(-c2n[nH]c3c(F)cc(O[C@H](C)c4c(Cl)cncc4Cl)cc23)cn1` [Example 10] came in with an IC50 of 10 to 100 nM. In addition, on FGFR3, the IC50 was in the range of 1 to 10 nM and the “Selectivity (X) FGFR1/FGFR3” value is on record as “A (A represents 1 ≤ multiple X<20)”. For `CC(=O)N1CCC(n2cc(-c3n[nH]c4c(F)cc(O[C@H](C)c5c(Cl)cncc5Cl)cc34)cn2)CC1` [Example 13], the results for the IC50 at FGFR1 (setting [1]) and at FGFR3 (setting [2]) were 10 to 100 nM and 1 to 10 nM, respectively. Also, the “Selectivity (X) FGFR1/FGFR3” value on FGFR3 is given as “A (A represents 1 ≤ multiple X<20)”. Taken in the same sequence, the figures for `C[C@@H](Oc1cc(F)c2[nH]nc(-c3cnn(CC(N)=O)c3)c2c1)c1c(Cl)cncc1Cl` [Example 16, (R)-2-(4-(5-(1-(3,5-dichloropyridin-4-yl)ethoxy)-7-fluoro-1H-indazol-3-yl)-1H-pyrazol-1-yl)acetamide] were 10 to 100 nM, 1 to 10 nM and “A (A represents 1 ≤ multiple X<20)”. Turning to `CC(Oc1ccc2[nH]nc(-c3cnn(C)c3)c2c1)c1cncc2ncccc12` (centres unmarked) [Example 108, 5-(1-((3-(1-methyl-1H-pyrazol-4-yl)-1H-indazol-5-yl)oxy)ethyl)-1,7-naphthyridine], the IC50 on FGFR3 (setting [2]) was above 100 nM.

For `CC(Oc1ccc2[nH]nc(-c3cnn(C)c3)c2c1)c1cccc2scnc12` (centres unmarked) [Example 109], the IC50 at FGFR3 (setting [2]) is 10 to 100 nM. On to `Cc1ccc2ncccc2c1C(CO)Oc1ccc2[nH]nc(-c3cnn(C)c3)c2c1` (centres unmarked) [Example 114, 2-((3-(1-methyl-1H-pyrazol-4-yl)-1H-indazol-5-yl)oxy)-2-(6-methylquinolin-5-yl)ethan-1-ol], for which the IC50 on FGFR3 (setting [2]) was above 100 nM. Regarding `Cc1ccc2ncccc2c1C(C)Sc1ccc2[nH]nc(-c3cnn(C)c3)c2c1` (centres unmarked) [Example 115, 6-methyl-5-(1-((3-(1-methyl-1H-pyrazol-4-yl)-1H-indazol-5-yl)thio)ethyl)quinoline], the IC50 at FGFR3 (setting [2]) was above 100 nM. `Cc1ccc2ncccc2c1C(C)Oc1cnc2[nH]nc(-c3cnn(C)c3)c2c1` (centres unmarked) [Example 117, 6-methyl-5-(1-((3-(1-methyl-1H-pyrazol-4-yl)-1H-pyrazino[3,4-b]pyridin-5-yl)oxy)ethyl)quinoline]: the IC50 on FGFR3 fell in the range of 10 to 100 nM. On to `Cc1ccc2ncccc2c1C(=O)Oc1ccc2[nH]nc(-c3cnn(C)c3)c2c1` [Example 118], for which, on FGFR3 (setting [2]), the IC50 is 10 to 100 nM.

With `Cc1ccc2ncccc2c1C(Oc1ccc2[nH]nc(-c3cnn(C)c3)c2c1)C(F)(F)F` (centres unmarked) [Example 121, 6-methyl-5-(2,2,2-trifluoro-1-((3-(1-methyl-1H-pyrazol-4-yl)-1H-indazol-5-yl)oxy)ethyl)quinoline], on FGFR3 (setting [2]), the IC50 is above 100 nM. Same read-out and setting: the value for `Cc1ccc(C(C)Oc2ccc3[nH]nc(-c4cnn(C)c4)c3c2)c2cccnc12` (centres unmarked) [Example 123, 8-methyl-5-(1-((3-(1-methyl-1H-pyrazol-4-yl)-1H-indazol-5-yl)oxy)ethyl)qu inoline] was above 100 nM; that for `CC(Oc1ccc2[nH]nc(-c3cnn(C)c3)c2c1)c1csc2ncccc12` (centres unmarked) [Example 125, 3-(1-((3-(1-methyl-1H-pyrazol-4-yl)-1H-indazol-5-yl)oxy)ethyl)thi eno[2,3-b]pyridine] was 10 to 100 nM.

In the case of `Cc1ccc2ncccc2c1C(C)Oc1cc2c(-c3cnn(C)c3)n[nH]c2cn1` (centres unmarked) [Example 131], at FGFR3 (setting [2]), the IC50 lay within 1 to 10 nM. On the same count and under the same terms, the value for `CC(Oc1ccc2[nH]nc(-c3cnn(C)c3)c2c1)c1cc(C(F)(F)F)cc2nccnc12` (centres unmarked) [Example 137, 5-(1-((3-(1-methyl-1H-pyrazol-4-yl)-1H-indazol-5-yl)oxy)ethyl)-7-(trifluoromethyl)quinoxaline] was 10 to 100 nM; that for `C#Cc1cc(C(C)Oc2ccc3[nH]nc(-c4cnn(C)c4)c3c2)c2nccnc2c1` (centres unmarked) [Example 146, 7-ethynyl-5-(1-((3-(1-methyl-1H-pyrazol-4-yl)-1H-indazol-5-yl)oxy)ethyl)quinoxa line] was 1 to 10 nM; that for `CC(Oc1ccc2[nH]nc(-c3cnn(C)c3)c2c1)c1cc(N(C)C)cc2ncccc12` (centres unmarked) [Example 151] was 10 to 100 nM. With `CC(Oc1ccc2[nH]nc(-c3ccc(S(C)(=N)=O)nc3)c2c1)c1cccc2nccnc12` (centres unmarked) [Example 152, imino(methyl)(5-(5-(1-(quinoxalin-5-yl)ethoxy)-1H-indazol-3-yl)pyridin-2-yl)-sulfanone], the IC50 on FGFR3 (setting [2]) fell in the range of 1 to 10 nM. As for `CC(Oc1ccc2[nH]nc(-c3ccc(N4CCS(=N)(=O)CC4)nc3)c2c1)c1cccc2nccnc12` (centres unmarked) [Example 153], the IC50 on FGFR3 (setting [2]) was below 1 nM. Still for that read-out and setting: the value for `CC(Oc1ccc2[nH]nc(-c3cnn(C4CCS(=N)(=O)CC4)c3)c2c1)c1cccc2nccnc12` (centres unmarked) [Example 154, 1-imino-4-(4-(5-(1-(quinoxalin-5-yl)ethoxy)-1H-indazol-3-yl)-1H-pyrazol-1-yl)hexahydro-thiopyran 1-oxide] was 1 to 10 nM; that for `CC(Oc1ccc2[nH]nc(-c3cnn(C)c3)c2c1)c1cc(C2CC2)cc2ncccc12` (centres unmarked) [Example 164, 7-cyclopropyl-5-(1-((3-(1-methyl-1H-pyrazol-4-yl)-1H-indazol-5-yl)oxy)ethyl)qui noline] was 1 to 10 nM; that for `Cc1ccc2ncccc2c1C(C)Oc1ccc2[nH]nc(-c3cn(C)nn3)c2c1` (centres unmarked) [Example 165, 6-methyl-5-(1-((3-(1-methyl-1H-1,2,3-triazol-4-yl)-1H-indazol-5-yl)oxy)ethyl)qui noline] was 10 to 100 nM. Regarding `C#Cc1ccc2ncccc2c1C(C)Oc1ccc2[nH]nc(-c3cnn(C)c3)c2c1` (centres unmarked) [Example 166, 6-ethynyl-5-(1-((3-(1-methyl-lH-pyrazol-4-yl)-1H-indazol-5-yl)oxy)ethyl)quinoline], at FGFR3, the IC50 is 10 to 100 nM. For the compound `CC(Oc1ccc2[nH]nc(-c3cnn(C)c3)c2c1)c1c(Cl)ccc2ncccc12` (centres unmarked) [Example 167, 6-chloro-5-(1-((3-(1-methyl-1H-pyrazol-4-yl)-1H-indazol-5-yl)oxy)ethyl)qu inoline], the IC50 at FGFR3 (setting [2]) fell in the range of 10 to 100 nM. For the compound `CC(Oc1ccc2[nH]nc(-c3cnn(C)c3)c2c1)c1c(C(F)(F)F)ccc2ncccc12` (centres unmarked) [Example 172, 5-(1-((3-(1-methyl-1H-pyrazol-4-yl)-1H-indazol-5-yl)oxy)ethyl)-6-(trifluoromethyl)quinoline], the IC50 at FGFR3 (setting [2]) fell in the range of 10 to 100 nM.

As to `COc1cc(OC(C)c2nc(C)cc3nccnc23)cc2c(-c3cnn(C)c3)n[nH]c12` (centres unmarked) [Example 231, 5-(1-((7-methoxy-3-(1-methyl-1H-pyrazol-4-yl)-1H-indazol-5-yl)oxy)ethyl)-7-methylpyrido[3,4-b]pyrazine], the half-inhibitory concentration (IC50) at FGFR3 (setting [2]) lay in the range of 1 to 10 nM. On the same count and under the same terms, under `CC(Oc1ccc2[nH]nc(-c3cnn(C)c3)c2c1)c1nc(C#N)cc2nccnc12` (centres unmarked) [Example 235, 5-(1-((3-(1-methyl-1H-pyrazol-4-yl)-1H-indazol-5-yl)oxy)ethyl)pyridino[3,4-b]pyr azine-7-carbonitrile] stands 10 to 100 nM.
